Results as given in paper PMC6117704, “Novel Natural Angiotensin Converting Enzyme (ACE)-Inhibitory Peptides Derived from Sea Cucumber-Modified Hydrolysates by Adding Exogenous Proline and a Study of Their Structure–Activity Relationship” (Marine Drugs, 2018).
Like-named read-outs stand apart in the source and are kept apart here. One block for each compound: values may come before it. Peptide text beside a SMILES is read from it.

Experiments:
ACE = tested on: ACE; set-up: method as in 8 sources, ref [4]; PMID 29426427; doi:10.1016/j.foodchem.2018.01.047; 4. Sangsawad P. Roytrakul S. Choowongkomon K. Kitts D.D. Chen X.M. Meng G. Lichan E. Yongsawatdigul J. Transepithelial transport across Caco-2 cell monolayers of angiotensin converting enzyme (ACE) in ||| ref [20] = [20]; PMID 29426427; doi:10.1016/j.jff.2016.12.005; 20. Sangsawad P. Roytrakul S. Yongsawatdigul J. Angiotensin converting enzyme (ACE) inhibitory peptides derived from the simulated in vitro gastrointestinal digestion of cooked chicken breast J. Funct ||| ref [21] = [21]; doi:10.1016/j.idairyj.2006.05.011; 21. Otte J. Shalaby S.M. Zakora M. Pripp A.H. El-Shabrawy S.A. Angiotensin-converting enzyme inhibitory activity of milk protein hydrolysates: Effect of substrate, enzyme and time of hydrolysis Int. D ||| ref [11] = [11]; doi:10.1080/10942912.2011.642048; 11. Sun H. Li T.J. Zhao X.H. ACE inhibition and enzymatic resistance in vitro of a casein hydrolysate subjected to plastein reaction in the presence of extrinsic proline and ethanol- or methanol-eater ||| ref [26] = [26]; PMID 24054237; doi:10.1016/j.foodchem.2013.07.067; 26. Ngo D.H. Ryu B. Kim S.K. Active peptides from skate ( Okamejei kenojei ) skin gelatin diminish angiotensin-I converting enzyme activity and intracellular free radical-mediated oxidation Food Chem. ||| ...; settings: cited from earlier work
rabbit-lung ACE = target: T1, rabbit-lung ACE (Oryctolagus cuniculus, UniProt P12822); assay: ACE-inhibitory activity of synthetic peptides; type: biochemical; settings: synthesized peptides; HHL substrate (8.3 mM Hip-His-Leu in 50 mM sodium borate, 0.5 M NaCl, pH 8.3), ACE 25 mU/mL, pre-incubation 37 °C 10 min, 60 min, UV 228 nm; mean ± SD (n = 3)
T1 construct: rabbit-lung ACE and Sephadex G-15 were purchased from Sigma Chemical Ltd; purchased Sigma Chemical Ltd (St. Louis, MO, USA); host or cells: rabbit lung tissue
T1 sequence (P12822 34-1310): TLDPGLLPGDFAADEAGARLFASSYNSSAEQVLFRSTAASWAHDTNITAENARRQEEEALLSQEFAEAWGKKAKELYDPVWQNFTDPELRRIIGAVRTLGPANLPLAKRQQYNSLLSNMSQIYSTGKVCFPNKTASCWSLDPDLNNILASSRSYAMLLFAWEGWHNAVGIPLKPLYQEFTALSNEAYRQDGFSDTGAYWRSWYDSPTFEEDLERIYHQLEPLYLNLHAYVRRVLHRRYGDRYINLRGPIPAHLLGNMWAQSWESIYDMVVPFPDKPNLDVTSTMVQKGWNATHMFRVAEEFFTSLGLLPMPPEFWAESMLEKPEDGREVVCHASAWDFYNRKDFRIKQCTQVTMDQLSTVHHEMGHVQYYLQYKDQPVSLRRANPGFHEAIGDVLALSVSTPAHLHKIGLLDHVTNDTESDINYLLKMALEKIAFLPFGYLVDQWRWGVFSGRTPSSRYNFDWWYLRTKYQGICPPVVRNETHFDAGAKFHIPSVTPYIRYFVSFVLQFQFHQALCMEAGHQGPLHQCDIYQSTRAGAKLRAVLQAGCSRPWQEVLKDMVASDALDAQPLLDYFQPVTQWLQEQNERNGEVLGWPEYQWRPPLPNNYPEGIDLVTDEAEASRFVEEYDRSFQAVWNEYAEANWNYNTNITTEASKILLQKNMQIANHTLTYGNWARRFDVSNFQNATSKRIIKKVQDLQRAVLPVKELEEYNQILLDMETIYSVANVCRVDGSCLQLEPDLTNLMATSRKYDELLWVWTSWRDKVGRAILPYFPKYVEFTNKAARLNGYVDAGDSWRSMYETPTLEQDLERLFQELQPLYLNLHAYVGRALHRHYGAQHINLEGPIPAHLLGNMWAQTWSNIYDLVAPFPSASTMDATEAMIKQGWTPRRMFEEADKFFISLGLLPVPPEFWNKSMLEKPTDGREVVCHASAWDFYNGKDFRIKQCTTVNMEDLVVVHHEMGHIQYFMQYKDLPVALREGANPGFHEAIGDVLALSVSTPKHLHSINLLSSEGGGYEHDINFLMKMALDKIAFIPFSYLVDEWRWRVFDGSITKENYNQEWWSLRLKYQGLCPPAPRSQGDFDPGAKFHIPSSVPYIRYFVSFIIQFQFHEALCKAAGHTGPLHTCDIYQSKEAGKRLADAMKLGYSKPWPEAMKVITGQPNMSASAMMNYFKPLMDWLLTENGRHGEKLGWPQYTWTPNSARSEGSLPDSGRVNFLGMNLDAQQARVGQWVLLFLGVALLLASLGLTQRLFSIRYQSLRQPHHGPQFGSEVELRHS
Description: Sea cucumber (Acaudina molpadioidea) was purchased from a local market (Qingdao, China) and its water content was determined to be 12.65% per 20 g on average. Hippuryl histidyl leucine (HHL), rabbit-lung ACE and Sephadex G-15 were purchased from Sigma Chemical Ltd (St. Louis, MO, USA). Papain (from papaya) and trypsin (from bovine sources) were purchased from Nanning Pangbo Biological Engineering Ltd (Nanning, China). O-Pthaldialdehyde (OPA) was purchased from Beijing Soularbio Technology Ltd. (Beijing, China). Proline (PubChem CID 145742), valine (PubChem CID 6287), tyrosine (PubChem CID 6057), tryptophan (PubChem CID 6305), leucine (PubChem CID 6106) and phenylalanine (PubChem CID 6140) were purchased from Sinopharm Chemical Reagent Ltd. (Shanghai, China). All other chemicals were obtained from local commercial sources and were of the highest purity available.
The ACE-inhibitory activity of the hydrolysates was measured according to a previously reported protocol with slight modifications. Briefly, a sample solution with 40 μL of ACE solution (25 mU/mL) was pre-incubated at 37 °C for 10 min. After this, the mixture was incubated with 50 μL of the substrate (8.3 mM Hip-His-Leu in 50 mM sodium borate buffer containing 0.5 M NaCl at pH of 8.3) for 60 min at the same temperature. The reaction was terminated by the addition of 1.0 M HCl (200 μL). The absorbance of hippuric acid in the incubated solution was determined at 228 nm using a UV-spectrophotometer (UV-2550, Shimadzu, Kyoto, Japan). The IC50 value was defined as the concentration of inhibitor that was needed to inhibit 50% of the ACE activity.
The molecular weights of peptides in the filtered hydrolysates were analyzed by MALDI-TOF (TOF 4800, Micromass Company, Manchester, UK). The amino acid sequences were determined in the positive ion mode by de novo sequencing. Subsequently, the peptides were synthesized using the solid phase method and purified by HPLC (ChinaPeptides Co. Ltd., Shanghai, China).

Compound: KPLL
ACE-inhibitory activity (in words) (ACE; ref [20]): high ACE-inhibitory activity

Compound: VYPFPGPIPNSLPQNIPP
ACE-inhibitory activity (in words) (ACE; ref [21]): high ACE-inhibitory activity

Compound: MVGSAPGVL
ACE-inhibitory activity (in words) (ACE; ref [26]): high ACE-inhibitory activity

Compound: AGPPGSDGQPGAK
IC50 (ACE; ref [38]): 420 ± 20 µM

Compound: LGPLGHQ
ACE-inhibitory activity (in words) (ACE; ref [26]): high ACE-inhibitory activity

IC50 (rabbit-lung ACE): 17.4 ± 0.89 µM
Compound: CC(C)C[C@H](NC(=O)[C@@H](N)CC(N)=O)C(=O)NCC(=O)O [NLG] (H-Asn-Leu-Gly-OH)

IC50 (rabbit-lung ACE): 8.18 ± 0.24 µM
Compound: CC(C)[C@H](NC(=O)[C@H](CC(N)=O)NC(=O)[C@@H]1CCCN1)C(=O)N[C@@H](C)C(=O)O [PNVA] (H-PNVA-OH)

IC50 (rabbit-lung ACE): 13.2 ± 0.39 µM
Compound: CC(C)C[C@H](NC(=O)[C@H](CC(N)=O)NC(=O)[C@@H]1CCCN1)C(=O)NCC(=O)O [PNLG] (H-PNLG-OH)

IC50 (rabbit-lung ACE): 12.7 ± 1.5 µM
Compound: CC(C)[C@H](NC(=O)[C@@H](N)CC(N)=O)C(=O)N[C@@H](C)C(=O)O [NVA] (H-Asn-Val-Ala-OH)
